Converted amounts (≈) assume the structure as drawn.

In experiment [1] the test system is panel of 125 important Gram positive strains and MDR clinical isolates of MRSA, VRE, and S. epidermidis. The experiment is described as follows: MIC versus panel of 125 strains. Particulars: panel of 125 strains incl. strains resistant to vancomycin, penicillin, erythromycin and ciprofloxacin. It is filed as cell-based. The protocol: Using a broth microdilution assay according to Clinical Laboratory Standards Institute (CSLI) guidelines, we tested 5-(2,5-bis(4-chloro-2-isopropylphenyl)thiophen-3-yl)-1H-tetrazole (“Test Article” in below table) to establish MICs against a broad range of MDR bacteria and noted substantive activity versus methicillin-resistant Staphylococcus aureus (MRSA), vancomycin-resistant Enterococcus (VRE) and Streptococcus spp. Antimicrobial susceptibility testing was performed by a microdilution broth assay according to CLSI guidelines. The inoculum was prepared from stationary-phase cultures diluted in water. Microtiter plate wells received aliquots of 100 μL of the compound diluted in Mueller-Hinton II cation adjusted media. The final concentration of compound typically ranged from 250 to 0.125 μg/ml in serial two-fold dilutions. In addition to the test compound, growth and sterility controls were included, along with DMSO vehicle control rows. The microtiter plates were inoculated with 5×10^5 bacteria and incubated overnight at 35° C. in a humidified atmosphere. […]

Experiment [2] relates to mupirocin resistant strains of E. faecalis VRE. The experiment is described as follows: activity against mupirocin resistant strains. In kind it is cell-based.
The next experiment relates to USA100 MRSA strain. The experiment is described as follows: bactericidal activity. In kind it is cell-based.
The subject of another experiment is AcpS. As to the kind of experiment: AcpS enzyme activity assay. In kind it is biochemical, S. aureus and E. coli. Particulars: [3H]-labeled holo-ACP formation. As for the experimental part:
The acpS gene was amplified from S. aureus and E. coli genomic DNA and inserted into a pET23b vector using standard recombinant DNA methodology such that the protein product would result in addition of a C-terminal 6×-His tag in frame with the AcpS open reading frames. […] Recombinant His-Tagged AcpS expression was induced by IPTG addition and overnight culture. Cell lysate was obtained by sequential aspiration through 16, 18 and 21 G needles in a buffer of 50 mM Tris-HCl (pH 8.5), 10 mM MgCl2, 2 mM DTT, 5% glycerol, and further adjusted to pH 8.1 with MES. […] In a typical AcpS enzyme activity assay, 57 μM [^3H]-labeled acyl-CoA, 2 μg apo-ACP, 10 mM MgCl2, 5 mM DTT, 50 mM Na phosphate (pH 7.0), and AcpS in a final volume of 10 μL were incubated at room temperature in a 1.5 mL microcentrifuge tube. At 5, 10, 15, and 20 minutes 2 μL of reaction were added to 750 μL 10% TCA on ice. Bovine serum albumin (BSA; 20 μl of a 25 mg/ml solution) was then added to facilitate precipitation of radiolabeled protein. The samples were centrifuged at 12 000 rcf for 5 min. […] 2 mL of scintillation fluid was added, and the amount of [^3H]-labeled holo-ACP formed was quantified by liquid scintillation counting. Each data point (remaining AcpS enzyme activity) was expressed as a percentage of vehicle control, with the median value of four time points presented.

Experiment [3] relates to mupirocin resistant strains of E. faecalis. The experiment is described as follows: activity against mupirocin resistant strains. In kind it is cell-based.
For the next experiment, the target named is LpxA (Escherichia coli, UniProt P0A722). The experiment is described as follows: in vitro enzyme assay, selectivity. It is filed as biochemical. Particulars: ACP utilizing bacterial enzyme.
In a further experiment the test system is Clostridium spp. The experiment is described as follows: activity against Clostridium spp. It is filed as cell-based.
In a further experiment the test system is S. aureus AcpS. The experiment is described as follows: MIC shift upon AcpS over-expression in E. coli strain D22. In kind it is cell-based. Particulars: E. coli D22 over-expressing S. aureus AcpS, IPTG inducible. The source says:
(§1) To determine if AcpS inhibition is the main in vivo target that results in bacterial killing by 5-(2,5-bis(4-chloro-2-isopropylphenyl)thiophen-3-yl)-1H-tetrazole, we over-expressed AcpS in bacteria. An E. coli strain genetically engineered to have a porous outer membrane (strain D22) was transformed with a plasmid expressing either E. coli or S. aureus AcpS under control of an IPTG inducible promoter.

A further experiment concerns the target T1, E. coli AcpS (Escherichia coli, UniProt P24224).
T1 construct: expressed in transfected cells; host or cells: E. coli strain D22 (porous outer membrane)
The description is as above. In kind it is cell-based. Particulars: E. coli D22 over-expressing E. coli AcpS, IPTG inducible.
Excerpt: as §1

The next experiment concerns USA300 MRSA strain. As to the kind of experiment: bactericidal activity. In kind it is cell-based.
In a further experiment the test system is MRSA. The experiment is described as follows: cellulitis model, intra-dermal MRSA. Conditions: topical formulation for 7 days. It is filed as in vivo, SKH1 mice. The protocol:
SKH1 mice were injected intra-dermally with MRSA (N=15). 5 mice received neutral control topical formulation for 7 days. 5 mice received a topical formulation containing mupirocin for 7 days. 5 mice received a topical formulation containing 5-(2,5-bis(4-chloro-2-isopropylphenyl)thiophen-3-yl)-1H-tetrazole for 7 days. Lesion area was measured each day. After 7 days, terminal colony forming units (CFUs) were measured to determine microbiological efficacy.

A further experiment relates to fatty acid synthase. The experiment is described as follows: in vitro enzyme assay, selectivity. It is filed as biochemical. Particulars: ACP utilizing bacterial enzyme.
Experiment [4] has as its system mupirocin resistant strains of S. epidermidis. The experiment is described as follows: activity against mupirocin resistant strains. In kind it is cell-based.

Chain of LpxA (P0A722 whole entry): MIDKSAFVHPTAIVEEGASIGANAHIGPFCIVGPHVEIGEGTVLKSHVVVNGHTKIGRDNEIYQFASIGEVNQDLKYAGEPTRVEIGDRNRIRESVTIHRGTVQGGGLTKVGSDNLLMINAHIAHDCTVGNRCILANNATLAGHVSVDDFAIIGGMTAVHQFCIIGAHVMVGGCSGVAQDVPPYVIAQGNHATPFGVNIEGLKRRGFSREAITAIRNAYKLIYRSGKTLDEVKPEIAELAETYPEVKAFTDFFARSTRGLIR
T1 sequence (P24224 whole entry): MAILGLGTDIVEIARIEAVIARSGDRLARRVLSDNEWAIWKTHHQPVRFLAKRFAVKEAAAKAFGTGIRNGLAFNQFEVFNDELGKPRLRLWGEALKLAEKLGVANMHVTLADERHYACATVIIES

On to `CC(C)c1cc(Cl)ccc1-c1cc(-c2nnn[nH]2)c(-c2ccc(Cl)cc2C(C)C)s1` [Test Article, 5-(2,5-bis(4-chloro-2-isopropylphenyl)thiophen-3-yl)-1H-tetrazole], for which the MIC (usually the lowest concentration that inhibits growth of the organism) in experiment [1] is 0.5 to 1 µg/mL (≈ 1.09 to 2.19 µM). The activity entry (in experiment [2]; in [3]; in the experiment on Clostridium spp.; in experiment [4]) was “retained activity” throughout. Also, the bactericidal activity entry with USA100 MRSA strain and in the experiment with USA300 MRSA strain was “rapidly bactericidal” in each case. Moreover, the AcpS inhibition entry in the experiment on AcpS was “inhibited”. Further, the “inhibition of LpxA” value at LpxA is given as “did not inhibit”. The “shift of MIC to higher concentration upon increased AcpS expression” value in the experiment on S. aureus AcpS turned out to be 16 fold; on E. coli AcpS, 32 fold. Moreover, the “terminal CFU count” value in the experiment on MRSA (FIG. 2A) is given as “significantly reduce”. Besides, the lesion area result in the experiment with MRSA (FIG. 2B) was “significantly reduce”. Besides, the “inhibition of fatty acid synthase” value in the experiment with fatty acid synthase was “did not inhibit”.

Source of the values: patent US12358902B2, “5-(2,5-bis(4-chloro-2-isopropylphenyl)thiophen-3-yl)-1H-tetrazole for the topical treatment of bacterial infections” (DENOVAMED INC., priority 2017, dated 2025).
